The values below come from ChEMBL document CHEMBL4742395, “Substituted Pyrazole Derivatives As Selective CDK12/13 Inhibitors” (2019).

Experiment [1] deals with Cyclin-dependent kinase 7 (Homo sapiens) (UniProt P50613). In words: Binding affinity to CDK7 in human Jurkat cells assessed as target occupancy after 6 hrs by spectrophotometry. In kind it is cell-based.
For experiment [2], the target named is T1, Cyclin-dependent kinase 12 (Homo sapiens, UniProt Q9NYV4). In words: Inhibition of CDK12 (unknown origin) using ULight - 4E - BP1( Thr37 / Thr46 ) as substrate preincubated for 60 mins bu LANCE-TR-FRET assay.
Target sequence in this assay (Q9NYV4 whole entry): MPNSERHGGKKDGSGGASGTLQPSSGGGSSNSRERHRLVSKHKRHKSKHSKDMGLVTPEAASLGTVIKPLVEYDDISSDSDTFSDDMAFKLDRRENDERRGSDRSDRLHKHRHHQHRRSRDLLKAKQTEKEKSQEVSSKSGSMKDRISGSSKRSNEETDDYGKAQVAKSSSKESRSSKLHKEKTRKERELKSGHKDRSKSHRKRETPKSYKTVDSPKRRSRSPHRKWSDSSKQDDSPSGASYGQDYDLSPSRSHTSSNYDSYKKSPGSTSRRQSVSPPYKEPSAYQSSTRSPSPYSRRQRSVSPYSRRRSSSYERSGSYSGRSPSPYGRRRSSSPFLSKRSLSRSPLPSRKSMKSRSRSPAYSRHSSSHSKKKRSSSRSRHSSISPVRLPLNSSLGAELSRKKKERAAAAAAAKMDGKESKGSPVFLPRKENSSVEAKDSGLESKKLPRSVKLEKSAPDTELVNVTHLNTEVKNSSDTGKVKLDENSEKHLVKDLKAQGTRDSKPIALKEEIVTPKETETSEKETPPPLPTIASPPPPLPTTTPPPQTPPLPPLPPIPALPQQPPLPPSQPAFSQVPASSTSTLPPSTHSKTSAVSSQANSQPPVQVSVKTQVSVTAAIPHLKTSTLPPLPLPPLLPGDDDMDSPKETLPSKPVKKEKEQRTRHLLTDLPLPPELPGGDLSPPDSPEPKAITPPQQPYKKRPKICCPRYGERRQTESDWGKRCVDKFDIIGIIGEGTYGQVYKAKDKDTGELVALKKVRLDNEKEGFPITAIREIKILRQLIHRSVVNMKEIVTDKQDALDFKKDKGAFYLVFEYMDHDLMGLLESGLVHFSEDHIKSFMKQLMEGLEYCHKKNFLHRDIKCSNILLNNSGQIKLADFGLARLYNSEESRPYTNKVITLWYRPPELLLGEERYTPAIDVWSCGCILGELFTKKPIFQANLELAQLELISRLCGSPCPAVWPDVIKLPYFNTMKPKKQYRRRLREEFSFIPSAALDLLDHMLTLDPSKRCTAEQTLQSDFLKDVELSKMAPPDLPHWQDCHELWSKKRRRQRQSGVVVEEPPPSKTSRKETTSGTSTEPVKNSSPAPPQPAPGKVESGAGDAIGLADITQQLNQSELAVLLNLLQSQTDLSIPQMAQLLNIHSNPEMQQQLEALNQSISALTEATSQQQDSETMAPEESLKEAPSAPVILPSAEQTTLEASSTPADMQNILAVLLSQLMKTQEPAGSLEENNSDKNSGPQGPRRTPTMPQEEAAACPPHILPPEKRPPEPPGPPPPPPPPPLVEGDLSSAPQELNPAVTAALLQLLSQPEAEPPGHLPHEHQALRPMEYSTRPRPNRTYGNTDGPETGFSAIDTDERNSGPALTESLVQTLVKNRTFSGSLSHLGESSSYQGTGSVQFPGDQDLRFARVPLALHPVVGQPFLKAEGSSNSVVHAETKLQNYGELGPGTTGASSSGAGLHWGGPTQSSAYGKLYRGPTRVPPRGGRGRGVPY
In experiment [3] the target is Cyclin-dependent kinase 13 (Homo sapiens, UniProt Q14004). Kind of experiment: Binding affinity to CDK13 (unknown origin) by TR-FRET assay.
For experiment [4], the species on record is Homo sapiens. Kind of experiment: Selectivity index, ratio of IC50 for inhibition of CDK7 (unknown origin) to IC50 for inhibition of CDK12 (unknown origin).
The species named for experiment [5] is Homo sapiens. Kind of experiment: Selectivity index, ratio of IC50 for inhibition of CDK7 (unknown origin) to IC50 for binding affinity to CDK13 (unknown origin).
Experiment [6] has as its target T1, Cyclin-dependent kinase 12. In words: Binding affinity to CDK12 in human Jurkat cells assessed as target occupancy after 6 hrs by spectrophotometry. In kind it is cell-based.
Target sequence in this assay (Q9NYV4 whole entry, looked up): as the sequence (Q9NYV4 whole entry) above
For experiment [7], the species on record is Homo sapiens. Kind of experiment: Selectivity index, ratio of target occupancy for CDK7 in human Jurkat cells to target occupancy for CDK12 in human Jurkat cells. Format: cell-based.

Chain of Cyclin-dependent kinase 13 (Q14004 whole entry): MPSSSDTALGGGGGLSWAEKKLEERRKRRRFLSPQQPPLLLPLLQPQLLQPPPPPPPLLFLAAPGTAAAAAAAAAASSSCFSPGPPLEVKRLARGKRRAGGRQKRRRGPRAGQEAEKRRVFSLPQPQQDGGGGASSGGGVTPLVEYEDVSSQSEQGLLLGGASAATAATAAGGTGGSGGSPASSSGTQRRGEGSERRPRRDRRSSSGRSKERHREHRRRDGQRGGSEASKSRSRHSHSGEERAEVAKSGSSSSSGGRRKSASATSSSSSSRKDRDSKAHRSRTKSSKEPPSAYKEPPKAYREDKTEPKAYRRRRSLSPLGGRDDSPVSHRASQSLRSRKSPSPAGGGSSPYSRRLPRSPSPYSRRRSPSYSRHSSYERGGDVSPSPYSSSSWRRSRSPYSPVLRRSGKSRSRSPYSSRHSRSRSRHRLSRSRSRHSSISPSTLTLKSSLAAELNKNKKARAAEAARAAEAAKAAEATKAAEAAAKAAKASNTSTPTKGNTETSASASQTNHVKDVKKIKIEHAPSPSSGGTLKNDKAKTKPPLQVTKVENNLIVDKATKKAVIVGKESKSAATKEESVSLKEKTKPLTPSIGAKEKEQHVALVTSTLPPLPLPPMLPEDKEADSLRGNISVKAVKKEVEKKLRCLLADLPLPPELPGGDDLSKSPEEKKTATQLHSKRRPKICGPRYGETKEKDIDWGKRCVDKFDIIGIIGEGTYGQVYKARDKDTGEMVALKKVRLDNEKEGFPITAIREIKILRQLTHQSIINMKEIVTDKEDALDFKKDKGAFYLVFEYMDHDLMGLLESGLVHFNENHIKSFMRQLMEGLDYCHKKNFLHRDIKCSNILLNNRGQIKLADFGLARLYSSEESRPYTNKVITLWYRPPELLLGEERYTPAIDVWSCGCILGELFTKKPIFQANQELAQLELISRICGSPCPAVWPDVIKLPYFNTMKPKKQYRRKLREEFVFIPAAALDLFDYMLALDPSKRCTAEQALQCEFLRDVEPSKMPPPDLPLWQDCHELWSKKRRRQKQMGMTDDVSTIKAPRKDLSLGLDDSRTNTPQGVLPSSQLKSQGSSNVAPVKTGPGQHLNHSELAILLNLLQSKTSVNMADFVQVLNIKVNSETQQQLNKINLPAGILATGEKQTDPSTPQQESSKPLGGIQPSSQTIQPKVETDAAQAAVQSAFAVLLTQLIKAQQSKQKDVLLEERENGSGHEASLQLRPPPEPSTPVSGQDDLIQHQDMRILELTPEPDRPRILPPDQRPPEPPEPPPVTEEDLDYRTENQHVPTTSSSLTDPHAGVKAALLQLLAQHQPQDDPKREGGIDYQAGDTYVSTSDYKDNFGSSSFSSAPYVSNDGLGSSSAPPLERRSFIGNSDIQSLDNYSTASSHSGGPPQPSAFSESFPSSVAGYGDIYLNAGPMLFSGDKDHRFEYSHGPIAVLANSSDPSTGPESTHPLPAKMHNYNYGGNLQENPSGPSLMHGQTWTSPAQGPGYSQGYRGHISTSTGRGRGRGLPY
Chain of Cyclin-dependent kinase 7 (Homo sapiens) (P50613 whole entry): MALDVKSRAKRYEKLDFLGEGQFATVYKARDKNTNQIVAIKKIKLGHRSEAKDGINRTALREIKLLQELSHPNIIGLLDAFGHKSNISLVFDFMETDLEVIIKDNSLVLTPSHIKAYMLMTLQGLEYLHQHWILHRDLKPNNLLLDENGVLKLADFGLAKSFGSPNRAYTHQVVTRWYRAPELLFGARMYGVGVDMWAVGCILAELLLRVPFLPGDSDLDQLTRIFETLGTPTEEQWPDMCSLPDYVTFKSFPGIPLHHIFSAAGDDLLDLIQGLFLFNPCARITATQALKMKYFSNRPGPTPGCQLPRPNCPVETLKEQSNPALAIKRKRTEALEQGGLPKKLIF

Consider `C[C@H](C(=O)Nc1cc(C2CC2)[nH]n1)c1ccc(C2=CCN(C(=O)/C=C/CN(C)C)CC2)cc1`, for which, in experiment [1], the Occ50 turned out to be 1670 nM.

As to `CCN(CC)C/C=C/C(=O)N1CC=C(c2ccc([C@H](C)C(=O)Nc3cc(C4CC4)[nH]n3)cc2)CC1`, the values for the IC50 in experiment [2] and in experiment [3] were 895 nM and 72 nM, respectively.

On to `C=CC(=O)N1CCC=C(c2ccc(C(C(=O)Nc3cc(C4CC4)[nH]n3)C(C)C)cc2)C1` (stereo not given), for which the values for the IC50 in experiment [2] and in experiment [3] were 160 nM and 279 nM, respectively.

For the compound `C=CC(=O)N1CCC(c2ccc(C(C)C(=O)Nc3cc(C4CC4)[nH]n3)cn2)C1` (stereo not given), the IC50 was found to be 55 nM in experiment [2] and 6 nM in experiment [3].

As for `C=CC(=O)N1CCC=C(c2ccc(CC(=O)Nc3cc(C4CC4)[nH]n3)cn2)C1`, the half-maximal inhibitory concentration (IC50) worked out at 23 nM in experiment [2] and 4 nM in experiment [3]. The Ratio IC50 is 75.2 in the experiment filed under Homo sapiens [4] and 432 in the experiment filed under Homo sapiens [5]. For the same compound, the Occ50 in experiment [6] came out at 0.016 µM.

In the case of `CC#CC(=O)N1CCC=C(c2ccc(CC(=O)Nc3cc(C4CC4)[nH]n3)cn2)C1`, the IC50 in experiment [2] is 37 nM; in experiment [3] it was 5 nM.

Regarding `CC(C(=O)Nc1cc(C2CC2)[nH]n1)c1cccc(C2CCN(C(=O)/C=C/CN(C)C)CC2)c1` (stereo not given), the Occ50 in experiment [1] was 130 nM; in experiment [6] it was 0.305 µM. In addition, the Ratio in the experiment listed under Homo sapiens [7] was 0.425.

For the compound `C=CC(=O)N1CC=C(c2ccc(CC(=O)Nc3cc(C4CC4)[nH]n3)cn2)CC1`, the 50% inhibitory concentration (IC50) was found to be 40 nM in experiment [2] and 19 nM in experiment [3]. Also, the Occ50 in experiment [6] is 0.025 µM.
